From patent publication US10160755B2 (Plexxikon Inc., priority 2015, dated 2018)

Assays:
FLT3-ITD = target: T1, FLT3-ITD (Homo sapiens, UniProt P36888); assay: FLT3-ITD biochemical kinase assay (AlphaScreen)
T1 construct: FLT3-ITD; Invitrogen #PV6190
T1 sequence (P36888 1-993): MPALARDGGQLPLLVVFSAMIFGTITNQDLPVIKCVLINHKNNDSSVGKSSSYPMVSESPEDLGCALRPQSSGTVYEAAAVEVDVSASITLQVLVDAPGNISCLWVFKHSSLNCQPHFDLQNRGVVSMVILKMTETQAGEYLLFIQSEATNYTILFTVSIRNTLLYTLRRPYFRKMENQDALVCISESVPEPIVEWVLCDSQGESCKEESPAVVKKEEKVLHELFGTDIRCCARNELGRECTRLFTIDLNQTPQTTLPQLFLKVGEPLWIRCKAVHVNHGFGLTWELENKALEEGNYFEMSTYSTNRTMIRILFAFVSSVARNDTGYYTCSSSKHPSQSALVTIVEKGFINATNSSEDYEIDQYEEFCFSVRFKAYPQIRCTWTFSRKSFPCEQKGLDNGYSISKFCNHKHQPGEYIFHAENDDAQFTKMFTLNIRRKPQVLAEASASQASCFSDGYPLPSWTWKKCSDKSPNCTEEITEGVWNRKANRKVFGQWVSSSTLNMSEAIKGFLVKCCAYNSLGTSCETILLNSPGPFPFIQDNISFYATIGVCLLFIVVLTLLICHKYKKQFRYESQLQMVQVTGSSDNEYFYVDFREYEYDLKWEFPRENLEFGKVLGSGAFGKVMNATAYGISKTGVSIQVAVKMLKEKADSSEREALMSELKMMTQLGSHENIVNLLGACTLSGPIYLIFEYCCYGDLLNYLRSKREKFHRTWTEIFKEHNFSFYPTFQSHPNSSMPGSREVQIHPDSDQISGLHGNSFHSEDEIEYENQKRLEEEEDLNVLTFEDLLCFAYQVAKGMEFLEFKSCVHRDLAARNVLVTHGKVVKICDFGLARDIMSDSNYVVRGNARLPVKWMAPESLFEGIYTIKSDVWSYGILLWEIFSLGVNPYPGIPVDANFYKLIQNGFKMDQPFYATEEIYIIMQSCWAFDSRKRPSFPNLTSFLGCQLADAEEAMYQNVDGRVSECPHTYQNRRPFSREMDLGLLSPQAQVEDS
Outline: (§1)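 Recombinant FLT3 mutant kinases phosphorylate biotin-poly(Glu4-Tyr) peptide (30 nM) at 10 μM ATP for D835Y or 100 μM for ITD. Phosphorylation detected by AlphaScreen: streptavidin donor beads (20 min) then anti-phosphotyrosine PY20 acceptor beads (60 min, RT), signal at 580 nm; inhibition lowers signal.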

FLT3-D835Y = target: T2, FLT3-D835Y (Homo sapiens, UniProt P36888, D835Y); assay: FLT3-D835Y biochemical kinase assay (AlphaScreen)
T2 construct: purchased Invitrogen PV3967
T2 sequence (P36888 27-993 D835Y): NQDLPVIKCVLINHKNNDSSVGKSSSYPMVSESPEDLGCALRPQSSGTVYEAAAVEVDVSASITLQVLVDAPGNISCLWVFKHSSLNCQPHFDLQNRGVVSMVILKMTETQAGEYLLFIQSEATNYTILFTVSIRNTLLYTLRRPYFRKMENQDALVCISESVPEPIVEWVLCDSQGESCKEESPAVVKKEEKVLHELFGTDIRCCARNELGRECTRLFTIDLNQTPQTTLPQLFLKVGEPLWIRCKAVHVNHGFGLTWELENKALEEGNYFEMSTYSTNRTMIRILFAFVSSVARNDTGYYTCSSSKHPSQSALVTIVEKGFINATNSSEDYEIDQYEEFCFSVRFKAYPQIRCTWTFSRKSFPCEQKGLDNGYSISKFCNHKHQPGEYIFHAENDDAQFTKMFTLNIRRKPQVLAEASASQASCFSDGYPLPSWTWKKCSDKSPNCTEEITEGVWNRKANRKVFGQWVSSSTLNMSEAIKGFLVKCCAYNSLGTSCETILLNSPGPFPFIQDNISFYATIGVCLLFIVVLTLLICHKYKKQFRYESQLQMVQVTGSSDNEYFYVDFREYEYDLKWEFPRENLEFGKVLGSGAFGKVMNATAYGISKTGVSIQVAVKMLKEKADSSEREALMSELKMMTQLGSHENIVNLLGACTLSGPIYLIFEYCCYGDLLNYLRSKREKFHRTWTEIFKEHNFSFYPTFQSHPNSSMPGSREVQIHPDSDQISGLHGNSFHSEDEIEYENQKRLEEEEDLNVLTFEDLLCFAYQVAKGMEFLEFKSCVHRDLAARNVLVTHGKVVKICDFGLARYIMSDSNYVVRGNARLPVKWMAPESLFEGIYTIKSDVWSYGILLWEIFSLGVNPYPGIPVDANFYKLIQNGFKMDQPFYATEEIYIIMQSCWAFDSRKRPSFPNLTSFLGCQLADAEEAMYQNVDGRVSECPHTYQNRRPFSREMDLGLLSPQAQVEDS
Outline: as §1

SMILES | IC50 (FLT3-ITD) [µM] | IC50 (FLT3-D835Y) [µM]
COc1cc(-c2cnc3[nH]cc(-c4ccc5ncn(C(C)(C)C)c5c4)c3c2)ccn1 [P-106, 1-tert-butyl-6-[5-(2-methoxy-4-pyridyl)-1H-pyrrolo[2,3-b]pyridin-3-yl]benzimidazole] | 0.0001 to 1 | 0.0001 to 1
COc1cc(-c2cnc3[nH]cc(-c4ccc5ncn(C(C)(C)C)c5c4)c3n2)ccn1 [P-099, 7-(3-tert-butylbenzimidazol-5-yl)-2-(2-methoxy-4-pyridyl)-5H-pyrrolo[2,3-b]pyrazine] | 0.0001 to 1 | 0.0001 to 1
CN(c1cccc(-c2cnc3[nH]cc(-c4ccc5ncn(C)c5c4)c3n2)c1)S(C)(=O)=O [P-150, N-methyl-N-[3-[7-(3-methylbenzimidazol-5-yl)-5H-pyrrolo[2,3-b]pyrazin-2-yl]phenyl]methanesulfonamide] | 0.0001 to 1 | 0.0001 to 1
CC(C)(C)n1cnc2ccc(-c3c[nH]c4ncc(C#Cc5cccc(C#N)c5)cc34)cc21 [P-242, 3-[2-[3-(3-tert-butylbenzimidazol-5-yl)-1H-pyrrolo[2,3-b]pyridin-5-yl]ethynyl]benzonitrile] | 0.0001 to 1 | 0.0001 to 1
CC(C)(C)n1cnc2ccc(-c3c[nH]c4ncc(-c5cnn(CC(F)(F)F)c5)nc34)cc21 [P-256, 7-(3-tert-butylbenzimidazol-5-yl)-2-[1-(2,2,2-trifluoroethyl)pyrazol-4-yl]-5H-pyrrolo[2,3-b]pyrazine] | 0.0001 to 1 | 0.0001 to 1
CC(C)(C)n1cnc2ccc(-c3c[nH]c4ncc(-c5cnn(CC(F)(F)F)c5)cc34)cc21 [P-252, 1-tert-butyl-6-[5-[1-(2,2,2-trifluoroethyl)pyrazol-4-yl]-1H-pyrrolo[2,3-b]pyridin-3-yl]benzimidazole] | 0.0001 to 1 | 0.0001 to 1

More lines, now with the values ahead:

IC50 (FLT3-ITD) [µM] | IC50 (FLT3-D835Y) [µM] | SMILES
0.0001 to 1 | 0.0001 to 1 | CC(C)(C)n1cnc2ccc(-c3c[nH]c4ncc(-c5cccc(NS(C)(=O)=O)c5)nc34)cc21 [P-097, N-[3-[7-(3-tert-butylbenzimidazol-5-yl)-5H-pyrrolo[2,3-b]pyrazin-2-yl]phenyl]methanesulfonamide]
0.0001 to 1 | 0.0001 to 1 | COc1cc(-c2cnc3[nH]cc(-c4ccc5ncn(C(C)(C)CO)c5c4)c3n2)ccn1 [P-186, 2-[6-[2-(2-methoxy-4-pyridyl)-5H-pyrrolo[2,3-b]pyrazin-7-yl]benzimidazol-1-yl]-2-methyl-propan-1-ol]
0.0001 to 1 | 0.0001 to 1 | COc1cc(-c2cnc3[nH]nc(-c4ccc5ncn(C(C)(C)C)c5c4)c3c2)ccn1 [P-272, 3-(1-(tert-butyl)-1H-benzo[d]imidazol-6-yl)-5-(2-methoxypyridin-4-yl)-1H-pyrazolo[3,4-b]pyridine]
0.0001 to 1 | 0.0001 to 1 | CCCS(=O)(=O)Nc1cccc(-c2cnc3[nH]cc(-c4ccc5ncn(C(C)(C)C)c5c4)c3n2)c1 [P-225, N-[3-[7-(3-tert-butylbenzimidazol-5-yl)-5H-pyrrolo[2,3-b]pyrazin-2-yl]phenyl]propane-1-sulfonamide]
0.0001 to 1 | 0.0001 to 1 | COC(=O)N1CCCC(n2cnc3ccc(-c4c[nH]c5ncc(-c6ccnc(OC)c6)nc45)cc32)C1 (stereo not shown) [P-261, methyl 3-(6-(2-(2-methoxypyridin-4-yl)-5H-pyrrolo[2,3-b]pyrazin-7-yl)-1H-benzo[d]imidazol-1-yl)piperidine-1-carboxylate]
